According to patent publication US10696692B2, “Amido-benzyl sulfone and sulfoxide derivates” (Forma TM, LLC, priority 2012, dated 2020):
Read-outs that look alike come from different tables or passages of the source. Blank lines part the entries; values can stand above or below the compound they belong to.

Columns and labels:
[1] = target: NAMPT (Homo sapiens (Human), UniProt P43490); test: Assay 1: Biochemical Inhibition Assay (NAMPT enzymatic reaction, NMN quantified by mass spectrometry); settings: read-out: Biochemical (IC50);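 also: recombinant His-tagged human NAMPT preincubated with compound 15 min, then reacted 30 min at rt with 1 µM NAM, 100 µM PRPP, 2.5 mM ATP, NMN product read by RapidFire MS, normalized to L-Cystathionine internal standard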
NAMPT, sequence (P43490 whole entry): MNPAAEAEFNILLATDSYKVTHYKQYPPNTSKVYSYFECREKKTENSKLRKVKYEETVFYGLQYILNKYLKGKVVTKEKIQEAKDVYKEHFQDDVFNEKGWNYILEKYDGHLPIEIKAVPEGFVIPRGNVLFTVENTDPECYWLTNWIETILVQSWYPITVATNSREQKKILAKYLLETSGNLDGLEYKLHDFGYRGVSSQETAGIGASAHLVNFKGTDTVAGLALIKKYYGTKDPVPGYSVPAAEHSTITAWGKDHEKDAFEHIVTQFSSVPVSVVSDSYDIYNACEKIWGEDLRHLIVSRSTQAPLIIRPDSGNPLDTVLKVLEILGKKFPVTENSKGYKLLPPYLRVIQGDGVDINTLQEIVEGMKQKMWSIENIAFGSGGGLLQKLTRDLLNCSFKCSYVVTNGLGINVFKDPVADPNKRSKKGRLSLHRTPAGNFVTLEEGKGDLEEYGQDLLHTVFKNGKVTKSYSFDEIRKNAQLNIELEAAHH

[2] = system: A2780 cells; test: Assay 2: In-Vitro Cell Proliferation Assay (A2780 cells, SRB readout, 72 hours); assay type: cell-based; settings: A2780 cells, 72 hours, SRB, read-out: Cell Proliferation (IC50);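 also: viable cells counted via sulforhodamine B staining, absorbance at 570 nm, after 72 h exposure at 37 °C, DMSO 0.1% as control, media-only background subtracted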

Structure (SMILES): CC(C)(C)OC(=O)N1CC2OCCN(S(=O)(=O)c3ccc(CNC(=O)c4ccc5nccn5c4)cc3)C2C1 (racemic) [Example 134, cis-4-(4-{([(Imidazo[1,2-a]pyridine-6-carbonyl)-amino]-methyl}-benzenesulfonyl)-hexahydro-pyrrolo[3,4-b][1,4]oxazine-6-carboxylic acid tert-butyl ester]
IC50 [1]: 166 nM | IC50 [2]: 49.5 nM

Structure (SMILES): O=C(NCc1ccc(S(=O)(=O)N2CC3CCNC3C2)cc1)c1ccc2nccn2c1 (centres unmarked) [Example 332, N-[[4-(2,3,3a,4,6,6a-hexahydro-1H-pyrrolo[3,4-b]pyrrol-5-ylsulfonyl)phenyl]methyl] imidazo[1,2-a]pyridine-6-carboxamide]
IC50 [1]: 174 nM | IC50 ([2]; Homo sapiens, A2780, 72 h): 171 nM

Structure (SMILES): O=C(NCc1ccc(S(=O)(=O)N2CCC3(CCNCC3)C2)cc1)c1ccc2nccn2c1 [Example 256, N-[[4-(2,8-diazaspiro[4.5]decan-2-ylsulfonyl)phenyl]methyl] imidazo[1,2-a]pyridine-6-carboxamide]
IC50 [1]: 53.7 nM | IC50 ([2]; Homo sapiens, A2780, 72 h): 66.9 nM

Structure (SMILES): CC(C)(C)OC(=O)N1CC[C@@H]2CN(S(=O)(=O)c3ccc(CNC(=O)c4ccc5nccn5c4)cc3)C[C@@H]21 (racemic) [Example 136, cis-5-(4-{[(Imidazo[1,2-a]pyridine-6-carbonyl)-amino]-methyl}-benzenesulfonyl)-hexahydropyrrolo[3,4-b]pyrrole-1-carboxylic acid tert-butyl ester]
IC50 [1]: 43.7 nM | IC50 ([2]; Homo sapiens, A2780, 72 h): 39.1 nM

Structure (SMILES): CCCN1CCC([S+]([O-])c2ccc(CNC(=O)c3cc4ccncc4o3)cc2)CC1 (centres unmarked) [Example 382, N-[[4-[(1-propyl-4-piperidyl)sulfinyl]phenyl]methyl]furo[2,3-c]pyridine-2-carboxamide]
IC50 [1]: 2000 nM | IC50 [2]: 2000 nM

Structure (SMILES): O=C(NCc1ccc(S(=O)(=O)N2CCC[C@@H](O)C2)cc1)c1cc2cnccc2[nH]1 [Example 50, 1H-Pyrrolo[3,2-c]pyridine-2-carboxylic acid 4-((R)-3-hydroxy-piperidine-1-sulfonyl)-benzylamide]
IC50 [1]: 36.2 nM | IC50 ([2]; Homo sapiens, A2780, 72 h): 23.9 nM

Structure (SMILES): O=C(NCc1ccc(S(=O)(=O)N2C[C@@H]3C[C@H]2CO3)cc1)c1ccc2nccn2c1 [Example 84, Imidazo[1,2-a]pyridine-6-carboxylic acid 4-[(1S,4S)-(2-oxa-5-aza-bicyclo[2.2.1]hept-5-yl)sulfonyl]-benzylamide]
IC50 [1]: 37.4 nM | IC50 ([2]; Homo sapiens, A2780, 72 h): 16.6 nM

Structure (SMILES): CC(C)C(=O)N1CCC(S(=O)(=O)c2ccc(CNC(=O)c3cc4ccncc4o3)cc2)CC1 [Example 313, N-[[4-[[1-(2-methylpropanoyl)-4-piperidyl]sulfonyl]phenyl]methyl]furo[2,3-c]pyridine-2-carboxamide]
IC50 [1]: 35 nM | IC50 ([2]; Homo sapiens, A2780, 72 h): 53.8 nM

Structure (SMILES): CC(C)(C)OC(=O)N1CC2CN(S(=O)(=O)c3ccc(CNC(=O)c4ccc5nccn5c4)cc3)CC(C1)O2 (racemic) [Example 133, cis-7-(4-{[(Imidazo[1,2-a]pyridine-6-carbonyl)-amino]-methyl}-benzenesulfonyl)-9-oxa-3,7-diaza-bicyclo[3.3.1]nonane-3-carboxylic acid tert-butyl ester]
IC50 [1]: 330 nM | IC50 ([2]; Homo sapiens, A2780, 72 h): 96.9 nM

Compounds with a lower IC50 [1], results first:

IC50 [1]: 19.4 nM | IC50 ([2]; Homo sapiens, A2780, 72 h): 5.6 nM
Structure (SMILES): O=C(NCc1ccc(S(=O)(=O)C2CCN(C3COC3)CC2)cc1)c1ccc2nccn2c1 [Example 114, Imidazo[1,2-a]pyridine-6-carboxylic acid 4-(l-oxetan-3-yl-piperidine-4-sulfonyl)-benzylamide]

IC50 [1]: 7.7 nM | IC50 ([2]; Homo sapiens, A2780, 72 h): 2.6 nM
Structure (SMILES): C[C@@H]1CN(S(=O)(=O)c2ccc(CNC(=O)c3ccc4nccn4c3)cc2)C[C@H](C)N1CC(F)(F)F [Example 83, Imidazo[1,2-a]pyridine-6-carboxylic acid 4-[(3R,5S)-3,5-dimethyl-4-(2,2,2-trifluoro-ethyl)-piperazine-1-sulfonyl]-benzylamide]

IC50 [1]: 29.5 nM | IC50 ([2]; Homo sapiens, A2780, 72 h): 39.4 nM
Structure (SMILES): CC(C)(C)OC(=O)N1CCC2(CCN(S(=O)(=O)c3ccc(CNC(=O)c4ccc5nccn5c4)cc3)CC2)C1 [Example 103, 8-(4-{[(Imidazo[1,2-a]pyridine-6-carbonyl)-amino]-methyl}-benzenesulfonyl)-2,8-diaza-spiro[4.5]decane-2-carboxylic acid tert-butyl ester]

IC50 [1]: 26.3 nM | IC50 ([2]; Homo sapiens, A2780, 72 h): 5.6 nM
Structure (SMILES): CC(C)CN1CCC([S+]([O-])c2ccc(CNC(=O)c3cc4cnccc4[nH]3)cc2)CC1 (racemic) [Example 182, 1H-Pyrrolo[3,2-c]pyridine-2-carboxylic acid 4-(l-isobutyl-piperidine-4-sulfinyl)-benzylamide]

IC50 [1]: 29.4 nM | IC50 ([2]; Homo sapiens, A2780, 72 h): 7.5 nM
Structure (SMILES): O=C(NCc1ccc(S(=O)(=O)N2CCN(C3COC3)CC2)cc1)c1ccc2nccn2c1 [Example 92, Imidazo[1,2-a]pyridine-6-carboxylic acid 4-(4-oxetan-3-yl-piperazine-1-sulfonyl)-benzylamide]

IC50 [1]: 16.5 nM | IC50 ([2]; Homo sapiens, A2780, 72 h): 48.9 nM
Structure (SMILES): O=C(NCc1ccc(S(=O)(=O)N2CC3COCC3C2)cc1)c1cc2ccncc2o1 (centres unmarked) [Example 153, Furo[2,3-c]pyridine-2-carboxylic acid 4-(tetrahydro-furo[3,4-c]pyrrole-5-sulfonyl)-benzylamide]

IC50 [1]: 31.5 nM | IC50 ([2]; Homo sapiens, A2780, 72 h): 45.8 nM
Structure (SMILES): O=C(NCc1ccc(S(=O)(=O)N2CCC[C@H](O)C2)cc1)c1cc2ccncc2o1 [Example 150, Furo[2,3-c]pyridine-2-carboxylic acid 4-((S)-3-hydroxy-piperidine-1-sulfonyl)-benzylamide]

IC50 [1]: 7.6 nM | IC50 ([2]; Homo sapiens, A2780, 72 h): 31.1 nM
Structure (SMILES): CC(C)CN1CCC([S+]([O-])c2ccc(CNC(=O)c3cnc4nccn4c3)cc2)CC1 (racemic) [Example 179, Imidazo[1,2-a]pyrimidine-6-carboxylic acid 4-(1-isobutyl-piperidine-4-sulfinyl)-benzylamide]

IC50 [1]: 14.4 nM | IC50 ([2]; Homo sapiens, A2780, 72 h): 4.14 nM
Structure (SMILES): CC(C)(C)OC(=O)N1CCC2(CCN(S(=O)(=O)c3ccc(CNC(=O)c4ccc5nccn5c4)cc3)C2)C1 (centres unmarked) [Example 241, tert-butyl 2-[4-[(imidazo[1,2-a]pyridine-6-carbonylamino)methyl]phenyl] sulfonyl-2,7-diazaspiro[4.4]nonane-7-carboxylate]

IC50 [1]: 32.9 nM | IC50 ([2]; Homo sapiens, A2780, 72 h): 19.9 nM
Structure (SMILES): O=C(NCc1ccc(S(=O)(=O)C2CCCOC2)cc1)c1ccc2nccn2c1 (centres unmarked) [Example 276, N-[(4-tetrahydropyran-3-ylsulfonylphenyl)methyl] imidazo[1,2-a]pyridine-6-carboxamide]

IC50 [1]: 25.9 nM | IC50 ([2]; Homo sapiens, A2780, 72 h): 20.5 nM
Structure (SMILES): O=C(NCc1ccc(S(=O)(=O)N2CCC(F)(F)CC2)cc1)c1ccc2nccn2c1 [Example 112, Imidazo[1,2-a]pyridine-6-carboxylic acid 4-(4,4-difluoro-piperidine-1-sulfonyl)-benzylamide]

IC50 [1]: 28.1 nM | IC50 ([2]; Homo sapiens, A2780, 72 h): 13.8 nM
Structure (SMILES): O=C(NCc1ccc(S(=O)(=O)N2CC3CCC(C2)O3)cc1)c1cc2cnccc2[nH]1 [Example 2, 1H-Pyrrolo[3,2-c]pyridine-2-carboxylic acid 4-(8-oxa-3-aza-bicyclo[3.2.1]octane-3-sulfonyl)-benzylamide]

IC50 [1]: 32.1 nM | IC50 ([2]; Homo sapiens, A2780, 72 h): 30.5 nM
Structure (SMILES): O=C(NCc1ccc(S(=O)(=O)N2CCC3(CCNC3)CC2)cc1)c1ccc2nccn2c1 [Example 152, Imidazo[1,2-a]pyridine-6-carboxylic acid 4-(2,8-diaza-spiro[4.5]decane-8-sulfonyl)-benzylamide]
